From patent US6855728B2, “Small-molecule modulators of hepatocyte growth factor / scatter factor activities” (North Shore-Long Island Jewish Health System, priority 2001, dated 2005) come the findings set out here.

The test system of assay [1] is Endothelial cells (HUVECs). Kind of assay: Endothelial cell (HUVEC) proliferation assay, 3H thymidine incorporation, compound without added growth factor. Format: cell-based, human. The following applies: for Activity at 6 microgram/ml Without HGF/SF (result in words) / inhibition at 6 µg/mL: 6 microgram/ml; for inhibition at 6 µg/mL: inhibition of HUVEC proliferation; for Activity at 2 microgram/ml Without HGF/SF: stimulation: stimulation of HUVEC proliferation; for activation at 5 µg/mL / activation at 10 µg/mL: 24 h; for activation at 5 µg/mL / Stimulation/Inhibition at 5 microg/ml (result in words) / Stimulation at 5 microg/ml: 5 microg/ml. Here is the method: Cell proliferation assays Endothelial cells (HUVECs) were seeded in 48 well plates at a density of 10,000 to 20,000 cells per well in the normal growth medium (EGM-2-Clonetics) containing 2% fetal bovine serum, FGF, VEGF, IGF, ascorbic acid, EGF, GA, heparin and hydrocortisone. The cells were grown normally in the growth medium for 24 hr at 37 degrees C. and 5% CO2. The cells were then rinsed with RPMI-1% BSA and starved for 1-2 hrs. The stock solutions of all the compounds were made at a concentration of 10 mg/ml in DMSO and diluted in RPMI-1% BSA at a final concentrations of 1 to 12 microgram/ml. The cells were then washed and treated with the compounds and incubated for another 24 hr at 37 degrees C. Then ^3H thymidine (0.5 microgram/ml in RPMI-BSA) was added to the cells and incubated at 37 degrees C. for 4 to 5 hours. The unincorporated thymidine was removed by washing the cells four times with 1× PBS. Then the cells were lysed with 0.5M NaOH for 30 min and the radioactivity counted in the beta counter. […]

The test system of assay [2] is HGF/SF induced proliferation of HUVEC. Kind of assay: Endothelial cell (HUVEC) proliferation assay in the presence of exogenously-added HGF/SF. Format: cell-based, human. The conditions noted are these: with HGF/SF; for Stimulation at 6-12 micrograms/ml With: stimulation of endothelial cell proliferation; for inhibition at 2 µg/mL / inhibition at 6 µg/mL: Homo sapiens; for inhibition at 2 µg/mL / Activity at 2 microgram/ml With HGF/SF (result in words): 2 microgram/ml; for inhibition at 2 µg/mL: read-out: Activity at 2 microgram/ml With HGF/SF: inhibition (blocked SF); for inhibition at 6 µg/mL: read-out: Activity at 6 microgram/ml With HGF/SF: inhibition (blocked SF). An excerpt: To evaluate inhibitors of activity, compounds may be evaluated directly for anti-proliferative activities, such as the inhibition of cellular proliferation, inhibition of tumor growth, inhibition of scatter, and inhibition of gene expression, and may also be evaluated on their ability to inhibit activity when exposed to cells together with. In such instances, the scatter and/or proliferative activities induced by added will be inhibited by the attendant presence of an inhibitory compound of the invention.
Cell proliferation assays Endothelial cells (HUVECs) were seeded in 48 well plates at a density of 10,000 to 20,000 cells per well in the normal growth medium (EGM-2-Clonetics) containing 2% fetal bovine serum, FGF, VEGF, IGF, ascorbic acid, EGF, GA, heparin and hydrocortisone. The cells were grown normally in the growth medium for 24 hr at 37 degrees C. and 5% CO2. The cells were then rinsed with RPMI-1% BSA and starved for 1-2 hrs. The stock solutions of all the compounds were made at a concentration of 10 mg/ml in DMSO and diluted in RPMI-1% BSA at a final concentrations of 1 to 12 microgram/ml. The cells were then washed and treated with the compounds and incubated for another 24 hr at 37 degrees C. Then ^3H thymidine (0.5 microgram/ml in RPMI-BSA) was added to the cells and incubated at 37 degrees C. for 4 to 5 hours. The unincorporated thymidine was removed by washing the cells four times with 1× PBS. Then the cells were lysed with 0.5M NaOH for 30 min and the radioactivity counted in the beta counter.

The mark [3] stands for this setting: without HGF/SF, stimulation of endothelial cell proliferation.
The mark [4] stands for this setting: inhibition of HUVEC proliferation.
[5] abbreviates: 6 microgram/ml, inhibition of HUVEC proliferation.
Setting [6] is: Homo sapiens, HUVEC, stimulation of endothelial cell proliferation.
[7] abbreviates: Homo sapiens, HUVEC, 10 microg/ml, stimulation of endothelial cell proliferation.
[8] abbreviates: stimulation of endothelial cell proliferation.
[9] abbreviates: 10 microg/ml, stimulation of endothelial cell proliferation.

Each structure is given as a SMILES string.

In the case of `C1=C(c2ccccc2)c2ccccc2C1(c1ccccc1)c1ccccc1` [1,1,3-triphenylinedene], the “Stimulation at 6-12 micrograms/ml Without HGF/SF” value in assay [1] (setting [3]) is on record as 50-100% stimulation. Also, in assay [2] (6-12 micrograms/ml), the “Stimulation at 6-12 micrograms/ml With” value is given as 30-40% stimulation.

Consider `c1ccc(-c2cc(-c3ccccc3)cc(-c3ccccc3)c2)cc1` [1,3,5-triphenylbenzene], for which the “Stimulation at 6-12 micrograms/ml Without HGF/SF” value in assay [1] (setting [3]) is listed as 40-60% stimulation. The “Stimulation at 6-12 micrograms/ml With” value in assay [2] (6-12 micrograms/ml) is “two fold stimulation”.

Consider `Cc1nn(C(=O)C(C)(C)C)c(C)c1Cc1c(F)cccc1Cl` [1-(4-(2-chloro-6-fluorobenzyl)-3,5-dimethyl-1H-pyrazole-1-yl)2,2-dimethylpropan-1-one], for which, in assay [1] (without HGF/SF), the “Activity at 2 microgram/ml Without HGF/SF (result in words)” value was “No effect” and the “Activity at 6 microgram/ml Without HGF/SF (result in words)” value is given as “No effect”. In addition, the inhibition at 2 µg/mL in assay [2] (setting [4]) was 25%. Besides, in assay [2] (setting [5]), the inhibition at 6 µg/mL was determined as 25%.

Take `Cc1nn(S(=O)(=O)c2ccc(Cl)cc2)c(C)c1Cc1c(Cl)cccc1Cl` [1-((4-chlorophenyl)sulfonyl)-4-(2,6-dichlorobenzyl)-3,5-dimethyl-1H-pyrazol]: in assay [1] (without HGF/SF), the “Activity at 2 microgram/ml Without HGF/SF (result in words)” value was “No effect” and the “Activity at 6 microgram/ml Without HGF/SF (result in words)” value is “No effect”. In addition, the “Activity at 2 microgram/ml With HGF/SF (result in words)” value (shortened to “Activity at 2 microgram/ml With HGF/SF”) in assay [2] is “No effect”. For the same molecule, the inhibition at 6 µg/mL in assay [2] (setting [5]) was found to be 50%.

Regarding `Cc1onc(-c2c(Cl)cccc2Cl)c1C(=O)NNC(=S)Oc1ccccc1[N+](=O)[O-]` [2-nitrophenyl 2-((3-(2,6-dichlorophenyl)-5-methylisoxazol-4-yl)carbonyl)hydrazine-1-carbothioate], in assay [1] (without HGF/SF), the “Activity at 2 microgram/ml Without HGF/SF (result in words)” value is “No effect”. Moreover, the inhibition at 6 µg/mL in assay [1] (Homo sapiens, without HGF/SF) was 80%; in assay [2] (setting [5]), 80%. For the same molecule, in assay [2], the “Activity at 2 microgram/ml With HGF/SF” value is on record as “No effect”.

Turning to `CC(C)(C)c1n[nH]c(C(C)(C)C)c1Cc1c(F)cccc1Cl` [3,5-di(tert-butyl)-4-(2-chloro-6-fluorobenzyl)-1H-pyrazole], in assay [1] (without HGF/SF), the “Activity at 2 microgram/ml Without HGF/SF: stimulation” value is 51% and the “Activity at 6 microgram/ml Without HGF/SF (result in words)” value is “No effect”. Further, the inhibition at 2 µg/mL in assay [2] (setting [4]) was found to be 25%. In addition, the inhibition at 6 µg/mL in assay [2] (setting [5]) turned out to be 50%.

For `Cc1nn(CCC#N)c(C)c1Cc1c(Cl)cccc1Cl` [3-(4-(2,6-dichlorobenzyl)-3,5-dimethyl-1H-pyrazol-1-yl)propanenitrile], the “Activity at 2 microgram/ml Without HGF/SF (result in words)” value in assay [1] (without HGF/SF) was “No effect”. The inhibition at 6 µg/mL was 34% in assay [1] (Homo sapiens, without HGF/SF) and 65% in assay [2] (setting [5]). The inhibition at 2 µg/mL in assay [2] (setting [4]) is 36%.

As to `O=C(C=Cc1ccc(Br)cc1)c1ccccc1` [3-(4-Bromophenyl)-1-phenylprop-2-en-1-one], the “Stimulation at 1 ug/ml Without HGF/SF” value in assay [1] (1 ug/ml, without HGF/SF, stimulation of endothelial cell proliferation) is reported as 40-80% stimulation at 1. Further, in assay [2] (6-12 micrograms/ml), the “Stimulation/Inhibition at 6-12 micrograms/ml With (result in words)” value is reported as “some additive effect”.

Take `Cc1nn(C)c(C)c1Cc1c(F)cccc1Cl` [4-(2-chloro-6-fluorobenzyl)-1,3,5-trimethyl-1H-1-pyrazole]: in assay [1] (without HGF/SF), the “Activity at 2 microgram/ml Without HGF/SF: stimulation” value amounted to 50% and the “Activity at 6 microgram/ml Without HGF/SF (result in words)” value is “No effect”. Besides, in assay [2], the “Activity at 2 microgram/ml With HGF/SF” value was “No effect”. Further, the “Activity at 6 microgram/ml With HGF/SF: inhibition (blocked SF)” value in assay [2] (setting [5]) was “by 30%”.

With `Cc1n[nH]c(C)c1Cc1c(F)cccc1Cl` [4-(2-chloro-6-fluorobenzyl)-3,5-dimethyl-1H-pyrazole], in assay [1] (without HGF/SF), the “Activity at 2 microgram/ml Without HGF/SF: stimulation” value came to 54% and the “Activity at 6 microgram/ml Without HGF/SF (result in words)” value is “No effect”. Moreover, in assay [2], the “Activity at 2 microgram/ml With HGF/SF” value was “No effect”. Also, the “Activity at 6 microgram/ml With HGF/SF (result in words)” value in assay [2] (6 microgram/ml) is “No effect”.

In the case of `Cc1nn(C(=O)c2ccc(Cl)cc2)c(C)c1Sc1nccn1C` [(4-chlorophenyl)(3,5-dimethyl-4-((1-methyl-1H-imidazol-2-yl)thio)-1H-pyrazol-1-yl)methanone], in assay [1] (setting [6]), the activation at 5 µg/mL came out at 52%. Also, the activation at 10 µg/mL in assay [1] (setting [7]) worked out at 50%.

In assay [1] (setting [6]), `Cc1nc(-c2ccc(-c3cccs3)s2)sc1-c1ccn(C(=O)c2ccc(Cl)cc2)n1` [(4-chlorophenyl)(3-(2-(5-(2-thienyl)-2-thienyl)-4-methyl-1,3-thiazol-5-yl)-1H-pyrazol-1-yl)methanone] displayed an activation at 5 µg/mL of 20%. This molecule returned an activation at 10 µg/mL in assay [1] (setting [7]) of 33%.

In turn, `O=C(c1ccc(Cl)cc1)n1ccc(-c2cc(-c3ccccc3)no2)n1` [(4-chlorophenyl)(3-(3-phenylisoxazol-5-yl)-1H-pyrazol-1-yl)methanone] displayed an activation at 5 µg/mL in assay [1] (setting [6]) of 54%. Also, the activation at 10 µg/mL in assay [1] (setting [7]) stood at 60%.

For `O=C(c1ccc(Cl)cc1)n1ccc(-c2ccc(-c3cccs3)s2)n1` [(4-chlorophenyl)(3-(5-(2-thienyl)-2-thienyl)-1H-pyrazol-1-yl)methanone], in assay [1] (setting [6]), the activation at 5 µg/mL came to 40%. The molecule also yielded an activation at 10 µg/mL in assay [1] (setting [7]) of 40%.

For `CSc1cc(-c2ccc(Oc3ccccc3)cc2)nn1C(=O)c1ccc(Cl)cc1` [(4-chlorophenyl)(5-(methylthio)-3-(4-phenoxyphenyl)-1H-pyrazol-1-yl)methanone], the “Stimulation/Inhibition at 5 microg/ml (result in words)” value (“Stimulation/Inhibition at 5 microg/ml” for short) in assay [1] was “No effect”. Besides, the inhibition at 10 µg/mL in assay [1] (Homo sapiens, HUVEC, 10 microg/ml, inhibition of endothelial cell proliferation) was determined as 40%.

In turn, `Cc1nn(C(=O)Nc2cccc(Cl)c2)c(C)c1Cc1csc2ccc(Cl)cc12` [N1-(3-chlorophenyl)-4-[(5-chlorobenzo[b]thiophen-3-yl)methyl]-3,5-dimethyl-1H-pyrazole-1-carboxamide] gave an activation at 5 µg/mL in assay [1] (setting [6]) of 86%. Also, the activation at 10 µg/mL in assay [1] (setting [7]) was 40%.

`O=C(Nc1ccc(Cl)cc1)n1ccc(C=Cc2cccs2)n1` [N1-(4-chlorophenyl)-3-(2-(2-thienyl)vinyl)-1H-pyrazole-1-carboxamide]: the “Stimulation/Inhibition at 5 microg/ml” value in assay [1] is “No effect”. This molecule displayed an activation at 10 µg/mL in assay [1] (setting [7]) of 55%.

As for `O=C(Nc1ccccc1)n1ccc(C=Cc2cccs2)n1` [N1-phenyl-3-(2-(2-thienyl)vinyl)-1H-pyrazole-1-carboxamide], the “Stimulation/Inhibition at 10 microg/ml (result in words)” value in assay [1] (10 microg/ml) is reported as “Not significant”. The molecule further gave an activation at 5 µg/mL in assay [1] (setting [6]) of 40%.

Consider `Cc1nn(C(=O)Nc2ccccc2)c(C)c1Cc1csc2ccc(Cl)cc12` [N1-phenyl-4-[(5-chlorobenzo[b]thiophen-3-yl)methyl]-3,5-dimethyl-1H-pyrazole-1-carboxamide], for which the “Stimulation at 5 microg/ml” value in assay [1] (setting [8]) is “two fold stimulation”. Further, the activation at 10 µg/mL in assay [1] (setting [7]) came to 45%.

Molecule `CNC(=O)n1ccc(C=Cc2cccs2)n1` [N-methyl-3-(2-(2-thienyl)vinyl)-1H-pyrazole-1-carboxamide] registered an activation at 5 µg/mL in assay [1] (setting [6]) of 70%. In assay [1] (setting [7]), this molecule gave an activation at 10 µg/mL of 42%.

As for `CCc1cn(C(=O)c2cccs2)nc1-c1c(F)cccc1F` [[3-(2,6-difluorophenyl)-4-ethyl-1H-pyrazol-1-yl](2-thienyl)methanone], the “Stimulation at 5 microg/ml” value in assay [1] (setting [8]) is on record as 2.5 fold stimulation. The “Stimulation at 10 microg/ml” value in assay [1] (setting [9]) is “two fold stimulation”.

With `COC(=O)c1c(C)nn(C(=O)c2ccc(Cl)cc2)c1-c1ccno1` [methyl 1-(4-chlorobenzoyl)-5-isoxazol-5-yl-3-methyl-1H-pyrazole-4-carboxylate], in assay [1], the “Stimulation/Inhibition at 5 microg/ml” value was “Not significant”. The activation at 10 µg/mL in assay [1] (setting [7]) turned out to be 33%.

Consider `Cc1nn(C(=O)c2ccc([N+](=O)[O-])cc2)c(C)c1Cc1csc2ccc(Cl)cc12` [{4-[(5-chlorobenzo[b]thiophen-3-yl)methyl]-3,5-dimethyl-1H-pyrazol-1-yl}(4-nitrophenyl)methanone], for which the “Stimulation at 10 microg/ml” value in assay [1] (setting [9]) came to 2.5 fold stimulation. This molecule also displayed an activation at 5 µg/mL in assay [1] (setting [6]) of 74%.
